Laboratory results as given in patent US11530384B2, “Use of matrix cells for preparing a micro hair follicle” (L'OREAL, priority 2015, dated 2022).
“Also recorded” adds a separate entry of the source.

Test system: matrix cells
Assay: Culture-amplification of hair matrix cells on a 3T3 feeder layer in the presence of Y27632
Type: cell-based, human
Conditions: matrix cells cultured on mitomycin-blocked 3T3 feeder layer, Green-based medium, 10 μM of Y27632
Excerpt: Some authors have proposed culturing these cells in coculture with papilla fibroblasts. The drawback of this method is that the culture obtained is not homogeneous, the matrix cells are contaminated with the dermal fibroblasts from the papilla used in coculture (Reynolds A J, Lawrence […] Human hair follicle germinative epidermal cell culture. J Invest Dermatol. 1993 October; 101(4):634-8). Luo et al. have proposed a technique of microdissection followed by culture of the matrix cells on a plastic support (Luo et al: Methods for culturing hair follicle epithelial matrix cells; Reg. number: H1610; Nov. 5, 1996). However, this microdissection technique results in a very low yield of matrix cells. The applicant has isolated the matrix cells and developed a process for culturing these cells. […] keratinocytes until they reach confluence while forming regular clusters. The cells are amplified according to the technique of Rheinwald and Green (Cell, vol. 6, 331-344,1975) by culturing on a feeder support constituted of fibroblasts in a suitable medium known to those skilled in the art, in the presence of growth factors, in particular amino acids, serum, cholera toxin, insulin, triiodothyronine and pH buffer solution. […]

## C[C@@H](N)[C@H]1CC[C@H](C(=O)Nc2ccncc2)CC1 [Y27632]
  differentiation of matrix cells into keratinocytes positive for K85 K35 markers: differentiation thereof into keratinocytes that are positive for the K85 K35 markers; also recorded: differentiate into K85 K35 keratinocytes
  proliferation of matrix cells in culture: considerable proliferation; also recorded: proliferate rapidly
